{
  "source": "ChEMBL document CHEMBL1201862",
  "about": "“PubChem BioAssay data set” (2004)",
  "key": {"[1]": {"test": "inhibitors of HIV Env-driven cell fusion, dose response, cherry-pick (AID 652057)", "format": "functional, cell-based"}, "[2]": {"test": "inhibitors of clade B AD8 Env fusion, dose response, cell-based, cherry-pick (AID 652062);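 also: potency is for inhibitors of fusion seen as a drop in luminescence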", "format": "functional"}, "[3]": {"test": "ZM109 Env clade C HIV-1 fusion inhibitors, dose response, HeLa effector, CEM target cells, luciferase, cherry-pick (AID 652058)", "format": "functional, cell-based"}, "Aminopeptidase N": {"target": "T1, Aminopeptidase N (Plasmodium falciparum FcB1/Columbia, UniProt O96935)", "T1 sequence (O96935 whole entry)": "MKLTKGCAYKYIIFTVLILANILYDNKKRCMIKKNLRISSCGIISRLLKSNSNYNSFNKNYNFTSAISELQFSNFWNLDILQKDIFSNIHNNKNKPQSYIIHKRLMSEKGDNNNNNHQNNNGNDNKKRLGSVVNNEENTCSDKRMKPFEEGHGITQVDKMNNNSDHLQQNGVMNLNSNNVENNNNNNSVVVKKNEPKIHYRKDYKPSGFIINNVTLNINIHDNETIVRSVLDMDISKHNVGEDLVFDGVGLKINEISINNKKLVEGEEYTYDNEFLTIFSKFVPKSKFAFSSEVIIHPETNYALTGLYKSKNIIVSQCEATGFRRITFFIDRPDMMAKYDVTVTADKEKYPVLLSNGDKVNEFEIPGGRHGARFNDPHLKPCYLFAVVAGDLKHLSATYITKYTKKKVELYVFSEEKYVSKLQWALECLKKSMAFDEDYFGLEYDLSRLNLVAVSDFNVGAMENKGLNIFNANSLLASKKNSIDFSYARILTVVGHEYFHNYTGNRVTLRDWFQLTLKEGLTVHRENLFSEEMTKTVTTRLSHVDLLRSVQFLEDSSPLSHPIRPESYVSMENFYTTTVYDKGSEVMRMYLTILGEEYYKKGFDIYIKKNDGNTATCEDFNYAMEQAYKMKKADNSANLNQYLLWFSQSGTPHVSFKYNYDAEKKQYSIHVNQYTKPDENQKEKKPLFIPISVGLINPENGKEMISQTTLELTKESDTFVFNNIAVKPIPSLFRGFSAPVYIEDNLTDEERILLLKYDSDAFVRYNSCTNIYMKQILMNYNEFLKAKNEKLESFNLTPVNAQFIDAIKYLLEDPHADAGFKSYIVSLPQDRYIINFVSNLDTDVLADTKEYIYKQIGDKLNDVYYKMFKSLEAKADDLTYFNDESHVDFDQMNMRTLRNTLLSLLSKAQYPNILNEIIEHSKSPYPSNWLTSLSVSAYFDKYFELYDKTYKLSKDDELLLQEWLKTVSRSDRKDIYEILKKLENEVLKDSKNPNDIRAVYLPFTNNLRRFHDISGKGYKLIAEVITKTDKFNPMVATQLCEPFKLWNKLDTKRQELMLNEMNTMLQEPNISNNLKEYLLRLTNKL", "test": "P. falciparum M1AAP inhibitors, biochemical, fluorogenic H-Leu-NHMec substrate, 1536-well (AID 1445)", "set-up": "species or system Plasmodium falciparum 3D7, 3D7"}, "Cytochrome P450 2C9": {"target": "Cytochrome P450 2C9 (Homo sapiens, UniProt P11712)", "sequence (P11712 whole entry)": "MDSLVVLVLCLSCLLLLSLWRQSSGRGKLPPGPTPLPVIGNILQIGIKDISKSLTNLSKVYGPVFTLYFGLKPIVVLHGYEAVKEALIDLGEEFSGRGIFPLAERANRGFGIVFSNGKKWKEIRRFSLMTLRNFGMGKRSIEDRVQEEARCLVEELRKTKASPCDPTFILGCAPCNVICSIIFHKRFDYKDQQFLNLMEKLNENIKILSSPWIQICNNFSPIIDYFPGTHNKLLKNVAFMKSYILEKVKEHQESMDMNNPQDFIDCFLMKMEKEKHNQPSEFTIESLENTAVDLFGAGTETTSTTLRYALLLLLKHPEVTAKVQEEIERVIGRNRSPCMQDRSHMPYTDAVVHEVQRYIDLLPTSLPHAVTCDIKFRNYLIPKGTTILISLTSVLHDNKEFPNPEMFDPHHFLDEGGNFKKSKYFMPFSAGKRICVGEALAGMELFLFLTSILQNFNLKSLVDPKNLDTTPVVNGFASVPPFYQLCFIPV"}, "Protein skinhead-1": {"target": "T2, Protein skinhead-1 (Caenorhabditis elegans, UniProt P34707)", "T2 sequence (P34707 whole entry)": "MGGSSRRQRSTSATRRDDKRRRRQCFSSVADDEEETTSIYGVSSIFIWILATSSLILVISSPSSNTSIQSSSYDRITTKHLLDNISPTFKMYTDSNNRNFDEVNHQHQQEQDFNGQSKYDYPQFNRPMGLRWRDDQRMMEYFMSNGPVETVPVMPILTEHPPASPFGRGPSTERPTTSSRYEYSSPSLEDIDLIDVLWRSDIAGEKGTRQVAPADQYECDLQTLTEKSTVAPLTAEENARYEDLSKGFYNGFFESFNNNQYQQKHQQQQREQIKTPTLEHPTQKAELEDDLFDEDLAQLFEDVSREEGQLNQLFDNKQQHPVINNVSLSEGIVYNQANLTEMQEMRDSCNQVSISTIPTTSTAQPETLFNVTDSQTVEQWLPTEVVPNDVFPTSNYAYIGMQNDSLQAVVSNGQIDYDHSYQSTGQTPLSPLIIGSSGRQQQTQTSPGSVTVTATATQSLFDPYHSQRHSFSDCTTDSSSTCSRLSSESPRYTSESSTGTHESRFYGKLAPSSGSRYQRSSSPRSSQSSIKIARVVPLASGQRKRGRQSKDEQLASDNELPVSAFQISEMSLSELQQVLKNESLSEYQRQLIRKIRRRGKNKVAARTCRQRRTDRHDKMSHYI", "format": "functional"}, "[4]": {"test": "Luminescence Cell-Based Dose Retest to Confirm Inhibitors of Cancer Stem Cells. [Related pubchem assays (depositor defined):AID2717, AID2721]", "format": "functional", "conditions": "Homo sapiens"}, "[5]": {"test": "HepG2 cell cytotoxicity, dose response, cytotoxicity control for non-replicating M. tuberculosis project (AID 489018)", "format": "functional", "conditions": "Mycobacterium tuberculosis"}, "[6]": {"test": "Vero E6 cell cytotoxicity, dose response, cytotoxicity control for non-replicating M. tuberculosis project, secondary assay (AID 492998)", "format": "functional, VeroE6", "conditions": "Vero C1008"}, "cells": {"test": "cells", "format": "functional"}, "[7]": {"test": "microbe, parasite or virus in culture", "format": "functional", "conditions": "Mycobacterium tuberculosis"}, "[8]": {"test": "THP-1 cell cytotoxicity, dose response, cytotoxicity control for non-replicating M. tuberculosis project (AID 489025)", "format": "functional"}, "Leucine aminopeptidase": {"target": "T3, Leucine aminopeptidase (Plasmodium falciparum 3D7, UniProt Q8IL11)", "T3 sequence (Q8IL11 whole entry)": "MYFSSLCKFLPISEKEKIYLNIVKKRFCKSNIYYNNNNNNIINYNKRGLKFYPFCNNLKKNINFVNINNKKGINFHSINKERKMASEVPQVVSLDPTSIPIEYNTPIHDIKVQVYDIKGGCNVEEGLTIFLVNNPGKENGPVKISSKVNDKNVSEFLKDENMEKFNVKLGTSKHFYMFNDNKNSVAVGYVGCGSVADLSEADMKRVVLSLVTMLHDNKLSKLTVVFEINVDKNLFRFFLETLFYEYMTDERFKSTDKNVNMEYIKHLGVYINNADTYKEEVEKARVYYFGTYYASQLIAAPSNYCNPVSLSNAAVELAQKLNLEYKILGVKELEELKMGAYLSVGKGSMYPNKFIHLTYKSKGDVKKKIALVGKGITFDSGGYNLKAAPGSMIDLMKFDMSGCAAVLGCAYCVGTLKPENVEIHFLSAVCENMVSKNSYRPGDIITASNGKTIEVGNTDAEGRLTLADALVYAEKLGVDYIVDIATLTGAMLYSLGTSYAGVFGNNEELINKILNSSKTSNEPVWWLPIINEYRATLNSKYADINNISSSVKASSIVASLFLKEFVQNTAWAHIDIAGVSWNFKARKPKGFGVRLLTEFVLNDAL", "test": "P. falciparum M17LAP inhibitors, primary screen, biochemical, fluorogenic H-Leu-NHMec substrate, 1536-well (AID 1619)", "format": "functional"}, "[9]": {"target": "Voltage-dependent T-type calcium channel subunit alpha-1H (Homo sapiens, UniProt O95180)", "sequence (O95180 whole entry)": "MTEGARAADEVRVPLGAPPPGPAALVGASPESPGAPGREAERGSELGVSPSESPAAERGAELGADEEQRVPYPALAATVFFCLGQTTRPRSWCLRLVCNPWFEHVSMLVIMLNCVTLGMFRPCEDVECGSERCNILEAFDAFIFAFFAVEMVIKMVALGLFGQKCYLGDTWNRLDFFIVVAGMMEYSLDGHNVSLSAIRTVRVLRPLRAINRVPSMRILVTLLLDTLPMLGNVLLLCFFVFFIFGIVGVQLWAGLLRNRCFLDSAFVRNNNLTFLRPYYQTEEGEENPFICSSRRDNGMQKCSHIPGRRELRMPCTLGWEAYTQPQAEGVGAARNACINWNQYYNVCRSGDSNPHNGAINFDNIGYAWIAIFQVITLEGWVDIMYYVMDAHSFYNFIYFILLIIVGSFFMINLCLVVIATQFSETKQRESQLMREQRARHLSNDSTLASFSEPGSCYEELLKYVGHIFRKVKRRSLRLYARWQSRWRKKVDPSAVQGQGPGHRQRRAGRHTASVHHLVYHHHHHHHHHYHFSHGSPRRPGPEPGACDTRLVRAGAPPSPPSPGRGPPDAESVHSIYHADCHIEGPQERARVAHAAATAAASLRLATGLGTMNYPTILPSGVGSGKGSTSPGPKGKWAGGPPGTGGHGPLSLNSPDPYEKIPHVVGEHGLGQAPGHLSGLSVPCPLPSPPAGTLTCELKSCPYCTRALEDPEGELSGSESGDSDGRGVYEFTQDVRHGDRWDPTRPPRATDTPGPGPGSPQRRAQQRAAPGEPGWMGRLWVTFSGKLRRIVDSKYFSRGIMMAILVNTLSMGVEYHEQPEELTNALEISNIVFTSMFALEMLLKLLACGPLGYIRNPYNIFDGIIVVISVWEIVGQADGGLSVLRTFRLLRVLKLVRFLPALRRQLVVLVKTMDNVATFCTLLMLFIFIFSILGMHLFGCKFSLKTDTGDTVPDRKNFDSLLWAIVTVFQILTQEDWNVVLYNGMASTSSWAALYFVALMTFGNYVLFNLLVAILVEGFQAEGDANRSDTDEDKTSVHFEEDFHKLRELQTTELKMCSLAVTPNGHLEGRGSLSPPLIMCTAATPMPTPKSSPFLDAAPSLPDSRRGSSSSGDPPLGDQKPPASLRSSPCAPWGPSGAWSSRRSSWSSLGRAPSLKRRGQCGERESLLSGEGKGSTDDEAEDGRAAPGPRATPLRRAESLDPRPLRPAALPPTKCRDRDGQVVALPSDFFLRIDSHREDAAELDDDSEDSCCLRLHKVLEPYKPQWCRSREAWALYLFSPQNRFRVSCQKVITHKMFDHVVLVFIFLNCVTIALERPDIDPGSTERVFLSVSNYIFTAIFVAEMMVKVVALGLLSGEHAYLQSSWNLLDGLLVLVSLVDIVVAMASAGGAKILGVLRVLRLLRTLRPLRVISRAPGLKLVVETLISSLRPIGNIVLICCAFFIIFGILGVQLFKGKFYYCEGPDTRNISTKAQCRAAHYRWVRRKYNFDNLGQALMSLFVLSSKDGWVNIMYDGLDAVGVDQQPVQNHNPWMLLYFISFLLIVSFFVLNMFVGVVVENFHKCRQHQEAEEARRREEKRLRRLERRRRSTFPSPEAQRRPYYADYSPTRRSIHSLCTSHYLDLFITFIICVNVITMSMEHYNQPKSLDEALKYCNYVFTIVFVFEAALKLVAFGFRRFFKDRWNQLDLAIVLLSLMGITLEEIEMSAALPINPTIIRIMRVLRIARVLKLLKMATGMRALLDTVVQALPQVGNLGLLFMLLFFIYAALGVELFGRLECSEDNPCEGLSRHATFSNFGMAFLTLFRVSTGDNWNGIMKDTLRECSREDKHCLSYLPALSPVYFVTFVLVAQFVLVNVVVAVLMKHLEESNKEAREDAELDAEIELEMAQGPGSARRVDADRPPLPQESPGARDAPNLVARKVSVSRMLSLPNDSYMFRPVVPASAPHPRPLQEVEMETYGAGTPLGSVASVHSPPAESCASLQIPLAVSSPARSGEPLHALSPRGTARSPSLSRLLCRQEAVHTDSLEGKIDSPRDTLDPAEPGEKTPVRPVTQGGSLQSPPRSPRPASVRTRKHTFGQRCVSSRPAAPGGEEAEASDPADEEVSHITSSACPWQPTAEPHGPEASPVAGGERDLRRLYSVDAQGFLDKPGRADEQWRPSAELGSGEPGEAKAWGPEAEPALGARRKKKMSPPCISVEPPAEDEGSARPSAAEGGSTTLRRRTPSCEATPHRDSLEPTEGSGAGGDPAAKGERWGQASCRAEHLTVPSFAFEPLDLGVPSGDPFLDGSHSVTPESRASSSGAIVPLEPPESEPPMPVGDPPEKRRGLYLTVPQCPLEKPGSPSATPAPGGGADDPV", "format": "functional"}, "Fatty acid synthase [10]": {"target": "T4, Fatty acid synthase (Homo sapiens, UniProt P49327)", "test": "FAS thioesterase domain inhibitors, dose response, biochemical, kinetic fluorescence intensity (AID 624326);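 also: rate of fluorescence rise from hydrolysis of a fluorogenic O-methyl fluorescein ester substrate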", "format": "functional"}, "Fatty acid synthase [11]": {"target": "T4, Fatty acid synthase", "test": "FAS thioesterase domain inhibitors, dose response, biochemical, endpoint fluorescence intensity, uHTS hits (AID 624327);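 also: fluorescence from hydrolysis of an O-methyl fluorescein acyl ester substrate by the enzyme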", "format": "functional"}},
  "note": "Calls of active or inactive are those of the source.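 For EC50 in this document: channel activity triggered by adding a high calcium stimulation buffer.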",
  "data": [
    {"smiles": "C[C@H](CO)N1C[C@H](C)[C@H](CN(C)C(=O)NC2CCCC2)Oc2cc(C#Cc3ccc(F)cc3)ccc2S1(=O)=O", "values": [
      {"measurement": "AC50", "setting": "[1]", "value": "24.5 µM (active)"},
      {"measurement": "AC50", "setting": "[2]", "value": "24.9 µM (active)"},
      {"measurement": "AC50", "setting": "[3]", "value": "13.2 µM (active)"}
    ]},
    {"smiles": "CC(C)NS(=O)(=O)c1ccc(CCC(=O)NCc2ccc3c(c2)OCO3)cc1", "values": [
      {"measurement": "IC50", "setting": "Aminopeptidase N", "value": "33.6 µM (active)"}
    ]},
    {"smiles": "CCn1c(SCC(=O)NC2CCCCC2)nnc1-c1cc2cccc(OC)c2o1", "values": [
      {"measurement": "AC50", "setting": "Cytochrome P450 2C9", "value": "inconclusive"},
      {"measurement": "IC50", "setting": "Protein skinhead-1", "value": "> 100 µM (inactive)"}
    ]},
    {"smiles": "CCC1=NN2C(=N)/C(=C/c3c(C)nn(-c4ccccc4)c3Cl)C(=O)N=C2S1", "values": [
      {"measurement": "IC50", "setting": "Aminopeptidase N", "value": "46.1 µM (active)"},
      {"measurement": "AC50", "setting": "[4]", "value": "78.8 µM (active)"}
    ]},
    {"smiles": "CCn1c(NC(=O)c2nn(C)cc2Br)nc2ccccc21", "values": [
      {"measurement": "CC50", "setting": "[5]", "value": "> 20 µM (active)"},
      {"measurement": "CC50", "setting": "[6]", "value": "> 20 µM (active)"},
      {"measurement": "IC50", "setting": "cells", "value": "5.5 µM (active)"},
      {"measurement": "CC50", "setting": "[7]", "value": "> 40 µM (active)"},
      {"measurement": "CC50", "setting": "[8]", "value": "> 40 µM (active)"}
    ]},
    {"smiles": "COc1ccc(/C=N/NC(=O)CSc2nnc(O)nc2O)cc1", "values": [
      {"measurement": "IC50", "setting": "Aminopeptidase N", "value": "29 µM (active)"},
      {"measurement": "IC50", "setting": "Leucine aminopeptidase", "value": "7.36 µM (active)"}
    ]},
    {"smiles": "O=C(CSc1nnc(-c2ccc(Cl)cc2)n1Cc1ccco1)NCc1ccc2c(c1)OCO2", "values": [
      {"measurement": "EC50", "setting": "[9]", "value": "1.11 µM (active)"}
    ]},
    {"smiles": "Cc1cccc(C)c1NC(=O)CSc1nnc(-c2ccccc2)n1Cc1ccc2c(c1)OCO2", "values": [
      {"measurement": "EC50", "setting": "[9]", "value": "5.4 µM (active)"}
    ]},
    {"smiles": "C=CCn1cc(C(=O)NCc2ccco2)c(=O)c2cc(S(=O)(=O)N3CCCCCC3)ccc21", "values": [
      {"measurement": "IC50", "setting": "Fatty acid synthase [10]", "value": "7.26 µM (active)"},
      {"measurement": "IC50", "setting": "Fatty acid synthase [11]", "value": "6.69 µM (active)"},
      {"measurement": "EC50", "setting": "[9]", "value": "6.32 µM (active)"}
    ]},
    {"smiles": "Cn1c(Oc2ccccc2)c(C=O)c2ccccc21", "values": [
      {"measurement": "AC50", "setting": "Cytochrome P450 2C9", "value": "inconclusive"}
    ]}
  ]
}
